{
  "source": "patent US11700805B2",
  "about": "“Regeneration of plants in the presence of histone deacetylase inhibitors” (KWS SAAT SE & CO. KGaA, priority 2017, dated 2023)",
  "key": {"[1]": {"test_system": "Arabidopsis hypocotyl explants", "conditions": "alone or in combination of kinetin and TSA; cited from earlier work"}, "[2]": {"test_system": "leaf explants of sugar beet (Beta vulgaris)", "type": "cell-based", "procedure": "1. Technical Description of the Sugar Beet Callus Induction Protocol\nThis method is based on the publication by Kischenko et al., 2005 Cell Biology International.\n1. Micropropagated shoots of the genotype S706 were used as starting material. Shoots were multiplied in MS salts supplemented with 30 g/l sucrose and 0.25 mg/l benzyladenine (BAP).\n2. To induce friable callus, leaf explants were isolated from micropropagated shoots and incubated in medium containing MS salts including 15 g/l sucrose and 2 mg/l BAP as a control and in the same medium supplemented with 0.01 μM TSA (B1), 0.1 μM TSA (B2), 0.5 μM TSA (B3), 1.0 μM TSA (B4), and 5.0 μM TSA (B5), at 28° C. in the dark for 7 weeks.\n3. Development of callus from leaf explants was monitored during the incubation in the callus induction medium at 4, 5, 6 and 7 weeks.\n4. Leaf explants producing friable calli were scored in order to calculate the callus induction frequency (percentage of leaf explants that produced friable calli)."}, "[3]": {"test_system": "Arabidopsis leaf explants", "conditions": "treatment with TSA; cited from earlier work"}, "[4]": {"test_system": "friable calli from sugar beet leaf explants", "test": "Shoot regeneration from friable calli induced in the presence of TSA", "type": "cell-based, Beta vulgaris", "procedure": "2. Technical Description of the Shoot Regeneration Protocol 1. The friable calli of step 4 were harvested in medium containing MS salts, 30 g/l sucrose, 1 mg/l GA3 and 1 mg/l TDZ, and transferred to separate dishes. 2. The dishes were incubated under the light (16 h) at 24° C. for 10 days. 3. Developing shoots were counted under a stereomicroscope, in order to estimate the regeneration capacity (number of shoots per initial leaf explant)."}, "[5]": {"test_system": "cells derived from male gametophytes of diverse plant species", "conditions": "TSA added to the culture medium; cited from earlier work"}},
  "note": "“Also recorded” adds a separate entry of the source. Read-outs that look alike come from different tables or passages of the source.",
  "data": [
    {"smiles": "c1coc(CNc2ncnc3[nH]cnc23)c1", "note": "[Kinetin]", "values": [
      {"measurement": "induction of callus growth", "setting": "[1]", "result": "did not induce callus growth"}
    ]},
    {"smiles": "CC(/C=C/C(=O)NO)=C\\[C@@H](C)C(=O)c1ccc(N(C)C)cc1", "note": "[TSA, trichostatin A]", "values": [
      {"measurement": "induction of callus growth", "setting": "[1]", "result": "did not induce callus growth"},
      {"measurement": "number of leaf explants with developing calli", "setting": "[2]; after 28 days, without TSA not reached even after 49 days", "result": "high number"},
      {"measurement": "genotype-dependent recalcitrance to callus formation", "setting": "[2]; first initial tests, TSA added", "result": "could be reduced"},
      {"measurement": "average callus induction frequency", "setting": "[2]; genotype 1, 0.01 μM TSA, control without TSA 66.3%", "result": 82, "unit": "%"},
      {"measurement": "callus induction frequency", "setting": "[2]; genotype 2, 0.01 μM TSA vs control", "result": "no significant increase"},
      {"measurement": "callus induction frequency", "setting": "[2]; genotype 3 (high level of recalcitrance), 0.01 μM TSA", "result": "very low"},
      {"measurement": "speed of callus formation", "setting": "[2]; genotype S706, FIG. 5, vs medium without TSA", "result": "accelerates"},
      {"measurement": "callus amount per leaf explant", "setting": "[2]; genotype S706, FIGS. 3B and 4B, vs medium without TSA", "result": "increases"},
      {"measurement": "callus induction frequency (percentage of leaf explants that produced friable calli)", "setting": "[2]; genotype S706, TSA 0.01 μM to 1.0 μM in callus induction medium, vs medium without TSA", "result": "increased"},
      {"measurement": "callus formation", "setting": "[3]", "result": "defective callus formation"},
      {"measurement": "average number of shoots per explant", "setting": "[4]; genotype 1, callus induced with 0.01 μM TSA, control 4.7", "result": 7.7},
      {"measurement": "average number of shoots per explant", "setting": "[4]; genotype 2, callus induced with 0.01 μM TSA, control 2.4", "result": 4.6},
      {"measurement": "regeneration of shoots from produced calli", "setting": "[4]; genotype 3 (high level of recalcitrance), callus induced with 0.01 μM TSA", "result": "able to regenerate shoots only when the calli were produced in medium containing TSA; also recorded: only possible if the callus has been induced in the presence of TSA"},
      {"measurement": "number of regenerated shoots per explant", "setting": "[4]; genotype S706, FIGS. 3C and 4C, vs control", "result": "increased"},
      {"measurement": "proportion of cells undergoing embryogenic growth", "setting": "[5]", "result": "large increase"}
    ]}
  ]
}
